# Data as given in patent US20220243210A1, “ANGIOTENSIN II TYPE 1 RECEPTOR TARGETED OLIGONUCLEOTIDES AND USES THEREOF” (Ionis Pharmaceuticals, Inc., priority 2019, published 2022).
# Columns and labels:
# human MALAT1 RNA [1] = assay: MALAT1 RNA reduction in HEK-AGTR1 FAP cells, free uptake, 24 hours; type: cell-based; settings: 24 hours; for MALAT (% control): relative to untreated control cells
# Description: (§1) At the end of the treatment period, total RNA was isolated from the cells and MALAT1 RNA levels were measured by quantitative real-time PC&. […] MALAT1 RNA levels were normalized according to total RNA content, as measured by RIBOGREEN®. Reduction of MALAT1 RNA is presented Table 3 below as percent MALAT1 RNA amount relative to untreated control (UTC) cells. The half maximal inhibitory concentration (IC50) of each modified oligonucleotide was calculated using a non-linear fit [inhibitor] vs. response—variable slope (four parameters) formula in GraphPad Prism 7.01.
# mouse MALAT RNA = assay: MALAT RNA reduction in vivo, C57BL6/J mice, multiple dose; settings: for ED50: IV day 0, 4, 8
# Description: Compound Nos. 556089, 1229761, and 1229762 are described in Table 1 above. Compound Nos. 556089, 1229761, and 1229762 were tested in C57BL6/J mice. The mice were divided into groups of 4 mice each. […] The mice were then sacrificed on day 12. Heart, adipose, adrenal, kidney, and liver tissue was then collected and homogenized and RNA analysis was performed. A group of 4 mice received PBS as a negative control.
# RNA was extracted from heart, adipose, adrenal, kidney, and liver tissue for real-time PCR analysis of measurement of RNA expression of MALAT using primer probe set mMALAT1 #2 (forward sequence […] (SEQ ID NO: 5); reverse sequence […] (SEQ ID NO: 6); probe sequence […] (SEQ ID NO: 7)). Results are presented as percent change of RNA, relative to PBS control, normalized to mouse GAPDH.
# HEK-APLNR FAP cells = assay: IP1 accumulation negative control in HEK-APLNR FAP cells (do not express AGTR1); type: cell-based, human; settings: 24 hours
# Description: Activated AGTR1 couples to the Gαq subunit of heterotrimeric G proteins, which activates the phospholipase C (PLC) and subsequently inositol 1,4,5-trisphosphate (IP3) signaling cascade. AGTR1 signaling was measured using an IP-One Gq kit (cisbio #62IPAPEB). The kit detects the accumulation of inositol monophosphate (IP1), a stable downstream metabolite of IP3 induced by activation of a phospholipase C (PLC) cascade.
# As a negative control, Compound Nos. 556089 and 1229761 were also tested in HEK293 cells expressing FAP tagged human Apelin receptor (HEK-APLNR FAP cells from Spectragenetics). […] HEK-APLNR FAP cells were cultured with Compound Nos. 556089 and 1229761, described herein above, at the concentrations detailed in Table 2 for 24 hours.
# human MALAT1 RNA [2] = assay: MALAT1 RNA reduction in HEK-AGTR1 FAP cells, free uptake, 48 hours; type: cell-based; settings: 48 hours; for MALAT (% control): relative to untreated control cells
# Description: as §1, with “PCR.” for “PC&.”, “Reduction of MALAT1 RNA is presented Table 3 below as percent MALAT1 RNA amount relative to untreated control (UTC) cells.” left out, “response-variable” for “response—variable”, “(three” for “(four”
substance,measurement,setting,value
Compound No. 1229762: Extended Angiotensin II peptide [N6-(2-azidoacetyl)-K]PPPAGSSPGDRVYIHPF conjugated via linker to 5′-end of MALAT1 modified oligonucleotide TCAGCATTCTAATAGCAGC,MALAT (% control),human MALAT1 RNA [1]; 12 nM,105 % control
same,MALAT (% control),human MALAT1 RNA [1]; 37 nM,90 % control
same,MALAT (% control),human MALAT1 RNA [1]; 111 nM,59 % control
same,MALAT (% control),human MALAT1 RNA [1]; 333 nM,36 % control
same,MALAT (% control),human MALAT1 RNA [1]; 1000 nM,41 % control
same,MALAT (% control),human MALAT1 RNA [1]; 3000 nM,22 % control
same,MALAT (% control),human MALAT1 RNA [1]; 9000 nM,24 % control
same,IC50,"human MALAT1 RNA [1]; MALAT1 RNA, four parameter fit",100 nM
same,improvement in target knockdown in words,human MALAT1 RNA [1]; among compounds tested,greatest improvement in target knockdown
same,MALAT-1 RNA (% control),"mouse MALAT RNA; Adipose, 0.4 μmol/kg IV day 0, 4, 8, sacrifice day 12, relative to PBS",58.3 % control
same,MALAT-1 RNA (% control),"mouse MALAT RNA; Adipose, 1.2 μmol/kg IV day 0, 4, 8, sacrifice day 12, relative to PBS",40.1 % control
same,MALAT-1 RNA (% control),"mouse MALAT RNA; Adipose, 3.6 μmol/kg IV day 0, 4, 8, sacrifice day 12, relative to PBS",20.5 % control
same,ED50,mouse MALAT RNA; Adipose,1.385 µmol/kg
same,MALAT-1 RNA (% control),"mouse MALAT RNA; Adrenal, 0.4 μmol/kg IV day 0, 4, 8, sacrifice day 12, relative to PBS",87.8 % control
same,MALAT-1 RNA (% control),"mouse MALAT RNA; Adrenal, 1.2 μmol/kg IV day 0, 4, 8, sacrifice day 12, relative to PBS",66.5 % control
same,MALAT-1 RNA (% control),"mouse MALAT RNA; Adrenal, 3.6 μmol/kg IV day 0, 4, 8, sacrifice day 12, relative to PBS",45.2 % control
same,ED50,mouse MALAT RNA; Adrenal,1.2 µmol/kg
same,MALAT-1 RNA (% control),"mouse MALAT RNA; Heart, 0.4 μmol/kg IV day 0, 4, 8, sacrifice day 12, relative to PBS",86.2 % control
same,MALAT-1 RNA (% control),"mouse MALAT RNA; Heart, 1.2 μmol/kg IV day 0, 4, 8, sacrifice day 12, relative to PBS",73.4 % control
same,MALAT-1 RNA (% control),"mouse MALAT RNA; Heart, 3.6 μmol/kg IV day 0, 4, 8, sacrifice day 12, relative to PBS",40 % control
same,ED50,mouse MALAT RNA; Heart,3.14 µmol/kg
same,MALAT-1 RNA (% control),"mouse MALAT RNA; Kidney, 0.4 μmol/kg IV day 0, 4, 8, sacrifice day 12, relative to PBS",50.6 % control
same,MALAT-1 RNA (% control),"mouse MALAT RNA; Kidney, 1.2 μmol/kg IV day 0, 4, 8, sacrifice day 12, relative to PBS",43.8 % control
same,MALAT-1 RNA (% control),"mouse MALAT RNA; Kidney, 3.6 μmol/kg IV day 0, 4, 8, sacrifice day 12, relative to PBS",22.4 % control
same,ED50,mouse MALAT RNA; Kidney,3.084 µmol/kg
same,MALAT-1 RNA (% control),"mouse MALAT RNA; Liver, 0.4 μmol/kg IV day 0, 4, 8, sacrifice day 12, relative to PBS",40.5 % control
same,MALAT-1 RNA (% control),"mouse MALAT RNA; Liver, 1.2 μmol/kg IV day 0, 4, 8, sacrifice day 12, relative to PBS",15.1 % control
same,MALAT-1 RNA (% control),"mouse MALAT RNA; Liver, 3.6 μmol/kg IV day 0, 4, 8, sacrifice day 12, relative to PBS",5.7 % control
same,ED50,mouse MALAT RNA; Liver,0.085 µmol/kg
same,IP1 accumulation,HEK-APLNR FAP cells; 0.0256 nM,723 nM
same,IP1 accumulation,HEK-APLNR FAP cells; 0.128 nM,634 nM
same,IP1 accumulation,HEK-APLNR FAP cells; 0.64 nM,679 nM
same,IP1 accumulation,HEK-APLNR FAP cells; 3.2 nM,596 nM
same,IP1 accumulation,HEK-APLNR FAP cells; 16 nM,526 nM
same,IP1 accumulation,HEK-APLNR FAP cells; 80 nM,517 nM
same,IP1 accumulation,HEK-APLNR FAP cells; 400 nM,609 nM
same,IP1 accumulation,HEK-APLNR FAP cells; 2000 nM,576 nM
same,MALAT (% control),human MALAT1 RNA [2]; 2.7 nM,100 % control
same,MALAT (% control),human MALAT1 RNA [2]; 8.2 nM,80 % control
same,MALAT (% control),human MALAT1 RNA [2]; 24.7 nM,69 % control
same,MALAT (% control),human MALAT1 RNA [2]; 74.1 nM,66 % control
same,MALAT (% control),human MALAT1 RNA [2]; 222.2 nM,42 % control
same,MALAT (% control),human MALAT1 RNA [2]; 666.7 nM,16 % control
same,MALAT (% control),human MALAT1 RNA [2]; 2000 nM,12 % control
same,MALAT (% control),human MALAT1 RNA [2]; 6000 nM,9 % control
same,MALAT (% control),human MALAT1 RNA [2]; .10 nM,103 % control
same,MALAT (% control),human MALAT1 RNA [2]; .3 nM,106 % control
same,MALAT (% control),human MALAT1 RNA [2]; .9 nM,101 % control
same,IC50,"human MALAT1 RNA [2]; MALAT1 RNA, three parameter fit",125 nM
